Data published in ChEMBL document CHEMBL4732227, “Discovery of a novel potent cytochrome P450 CYP4Z1 inhibitor” (Eur J Med Chem, 2021).

What was measured:
Cytochrome P450 4Z1 [1] = biological target: T1, Cytochrome P450 4Z1 (Homo sapiens, UniProt Q86W10); test: Inhibition of human CYP4Z1 overexpressed in human MCF7 cells using luciferin-3FBE as substrate incubated for 24 hrs followed by substrate addition by luminescence based assay; format: cell-based
T1 sequence (Q86W10 whole entry): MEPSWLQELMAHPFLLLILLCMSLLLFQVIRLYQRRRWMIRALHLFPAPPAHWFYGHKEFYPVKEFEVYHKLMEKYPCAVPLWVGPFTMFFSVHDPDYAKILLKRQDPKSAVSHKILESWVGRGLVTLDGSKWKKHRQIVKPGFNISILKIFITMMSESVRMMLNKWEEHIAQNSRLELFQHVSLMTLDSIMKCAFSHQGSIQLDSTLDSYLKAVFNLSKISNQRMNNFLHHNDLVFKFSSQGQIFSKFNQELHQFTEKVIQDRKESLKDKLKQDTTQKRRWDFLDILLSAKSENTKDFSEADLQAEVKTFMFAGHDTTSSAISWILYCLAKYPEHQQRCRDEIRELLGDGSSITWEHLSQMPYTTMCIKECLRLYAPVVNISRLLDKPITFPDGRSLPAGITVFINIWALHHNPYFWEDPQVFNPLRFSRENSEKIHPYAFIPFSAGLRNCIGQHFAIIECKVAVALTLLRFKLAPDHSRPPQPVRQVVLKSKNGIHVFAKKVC

Cytochrome P450 4Z1 [2] = biological target: T1, Cytochrome P450 4Z1; test: Inhibition of human CYP4Z1 overexpressed in human MCF7 cells using luciferin-BE as substrate incubated for 24 hrs followed by substrate addition by luminescence based assay; format: cell-based
Cytochrome P450 4Z1 [3] = biological target: T1, Cytochrome P450 4Z1; test: Inhibition of human CYP4Z1 overexpressed in human MCF7 cells at 1 uM using luciferin-3FBE as substrate incubated for 24 hrs followed by substrate addition by luminescence based assay relative to control; format: cell-based
Cytochrome P450 4Z1 [4] = biological target: T1, Cytochrome P450 4Z1; test: Inhibition of human CYP4Z1 expressed in permeabilized fission AZ3 yeast cells at 100 nM using luciferin-3FBE as substrate incubated for 3 hrs by luminescence based enzyme bag assay relative to control; format: cell-based
CYP2D6 = CYP2D6 (Homo sapiens, UniProt P10635); test: Inhibition of human CYP2D6 at 1 uM using luciferin-MEEGE as substrate by enzyme bag based one point inhibition assay relative to control; format: ADME; conditions: enzyme bags, probe luciferin-MEEGE
CYP2D6, sequence (P10635 whole entry): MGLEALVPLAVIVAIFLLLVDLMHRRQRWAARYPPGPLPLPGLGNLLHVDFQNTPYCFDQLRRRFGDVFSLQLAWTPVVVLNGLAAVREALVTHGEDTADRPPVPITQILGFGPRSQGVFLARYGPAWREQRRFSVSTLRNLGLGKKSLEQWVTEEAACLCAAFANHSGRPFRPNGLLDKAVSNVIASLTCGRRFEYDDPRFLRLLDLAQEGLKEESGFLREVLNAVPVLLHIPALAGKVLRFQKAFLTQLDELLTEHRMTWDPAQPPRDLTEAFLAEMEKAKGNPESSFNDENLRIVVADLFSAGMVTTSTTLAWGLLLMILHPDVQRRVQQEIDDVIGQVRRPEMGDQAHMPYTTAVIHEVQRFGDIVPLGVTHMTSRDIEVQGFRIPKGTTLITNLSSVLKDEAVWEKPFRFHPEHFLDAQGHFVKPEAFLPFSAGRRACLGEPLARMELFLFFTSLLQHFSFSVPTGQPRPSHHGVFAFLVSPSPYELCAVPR

CYP2C19 = CYP2C19 (Homo sapiens, UniProt P33261); test: Inhibition of human CYP2C19 at 1 uM using luciferin-HEGE as substrate by enzyme bag based one point inhibition assay relative to control; format: ADME; conditions: enzyme bags, probe luciferin-HEGE
CYP2C19, sequence (P33261 whole entry): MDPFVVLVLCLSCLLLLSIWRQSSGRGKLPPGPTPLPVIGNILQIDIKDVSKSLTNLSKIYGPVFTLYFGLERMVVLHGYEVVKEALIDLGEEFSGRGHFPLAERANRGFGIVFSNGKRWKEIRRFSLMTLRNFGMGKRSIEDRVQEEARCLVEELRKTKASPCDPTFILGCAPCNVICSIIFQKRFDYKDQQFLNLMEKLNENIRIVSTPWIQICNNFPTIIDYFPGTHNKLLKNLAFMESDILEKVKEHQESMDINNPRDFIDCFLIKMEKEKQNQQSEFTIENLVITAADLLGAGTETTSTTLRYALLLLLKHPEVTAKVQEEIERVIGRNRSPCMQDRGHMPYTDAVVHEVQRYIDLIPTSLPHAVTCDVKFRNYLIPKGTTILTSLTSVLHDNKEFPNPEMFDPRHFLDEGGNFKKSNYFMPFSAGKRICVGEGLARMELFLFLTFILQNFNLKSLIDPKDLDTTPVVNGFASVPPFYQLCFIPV

CYP1A2 = biological target: T2, CYP1A2 (Homo sapiens, UniProt P05177); test: Inhibition of human CYP1A2 at 1 uM using luciferin-ME as substrate by enzyme bag based one point inhibition assay relative to control; format: ADME; conditions: enzyme bags, probe luciferin-ME
T2 sequence (P05177 whole entry): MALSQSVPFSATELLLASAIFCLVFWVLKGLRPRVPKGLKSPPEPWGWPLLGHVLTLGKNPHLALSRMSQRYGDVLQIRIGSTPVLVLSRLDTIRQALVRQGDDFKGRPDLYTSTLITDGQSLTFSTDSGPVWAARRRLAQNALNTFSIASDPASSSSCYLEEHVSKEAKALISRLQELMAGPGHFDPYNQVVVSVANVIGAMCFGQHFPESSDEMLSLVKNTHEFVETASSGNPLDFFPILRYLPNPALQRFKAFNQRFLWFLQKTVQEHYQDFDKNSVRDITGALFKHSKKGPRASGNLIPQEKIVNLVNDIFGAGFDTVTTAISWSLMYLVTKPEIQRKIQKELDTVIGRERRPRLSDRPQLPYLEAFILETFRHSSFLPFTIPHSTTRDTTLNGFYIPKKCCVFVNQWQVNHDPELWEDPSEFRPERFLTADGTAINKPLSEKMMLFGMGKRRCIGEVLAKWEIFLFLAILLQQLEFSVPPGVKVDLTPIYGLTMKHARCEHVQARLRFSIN

CYP3A4 = CYP3A4 (Homo sapiens, UniProt P08684); test: Inhibition of human CYP3A4 at 1 uM using luciferin-BE as substrate by enzyme bag based one point inhibition assay relative to control; format: ADME; conditions: enzyme bags, probe luciferin-BE
CYP3A4, sequence (P08684 whole entry): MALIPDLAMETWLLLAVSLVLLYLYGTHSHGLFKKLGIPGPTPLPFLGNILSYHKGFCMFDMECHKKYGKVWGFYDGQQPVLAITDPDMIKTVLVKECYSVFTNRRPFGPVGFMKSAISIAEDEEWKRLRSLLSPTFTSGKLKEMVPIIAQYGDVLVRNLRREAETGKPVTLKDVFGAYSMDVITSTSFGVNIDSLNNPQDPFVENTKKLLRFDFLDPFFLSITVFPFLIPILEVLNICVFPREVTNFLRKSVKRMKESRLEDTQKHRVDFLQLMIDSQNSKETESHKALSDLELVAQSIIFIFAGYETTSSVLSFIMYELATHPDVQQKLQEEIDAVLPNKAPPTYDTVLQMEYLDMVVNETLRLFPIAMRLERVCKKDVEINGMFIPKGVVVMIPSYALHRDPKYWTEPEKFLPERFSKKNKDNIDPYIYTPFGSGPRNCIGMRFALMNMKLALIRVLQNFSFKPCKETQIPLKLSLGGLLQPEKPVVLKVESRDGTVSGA

CYP2C9 = CYP2C9 (Homo sapiens, UniProt P11712); test: Inhibition of human CYP2C9 at 1 uM using luciferin-H as substrate by enzyme bag based one point inhibition assay relative to control; format: ADME; conditions: enzyme bags, probe luciferin-H
CYP2C9, sequence (P11712 whole entry): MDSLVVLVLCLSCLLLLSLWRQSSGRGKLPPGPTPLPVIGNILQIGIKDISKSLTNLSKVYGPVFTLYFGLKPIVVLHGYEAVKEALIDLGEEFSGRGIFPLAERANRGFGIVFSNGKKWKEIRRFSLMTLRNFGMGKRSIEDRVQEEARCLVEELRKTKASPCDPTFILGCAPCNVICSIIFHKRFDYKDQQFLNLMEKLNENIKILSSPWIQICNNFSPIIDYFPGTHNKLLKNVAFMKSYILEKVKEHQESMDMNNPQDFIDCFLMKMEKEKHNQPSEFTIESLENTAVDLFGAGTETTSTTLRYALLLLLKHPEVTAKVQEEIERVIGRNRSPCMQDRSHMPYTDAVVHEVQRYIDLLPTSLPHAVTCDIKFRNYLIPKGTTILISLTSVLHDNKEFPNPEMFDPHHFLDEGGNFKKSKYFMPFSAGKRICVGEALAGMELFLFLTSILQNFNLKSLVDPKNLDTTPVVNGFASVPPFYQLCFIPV

CYP2E1 = CYP2E1 (Homo sapiens, UniProt P05181); test: Inhibition of human CYP2E1 at 1 uM using luciferin-ME as substrate by enzyme bag based one point inhibition assay relative to control; format: ADME; conditions: enzyme bags, probe luciferin-ME
CYP2E1, sequence (P05181 whole entry): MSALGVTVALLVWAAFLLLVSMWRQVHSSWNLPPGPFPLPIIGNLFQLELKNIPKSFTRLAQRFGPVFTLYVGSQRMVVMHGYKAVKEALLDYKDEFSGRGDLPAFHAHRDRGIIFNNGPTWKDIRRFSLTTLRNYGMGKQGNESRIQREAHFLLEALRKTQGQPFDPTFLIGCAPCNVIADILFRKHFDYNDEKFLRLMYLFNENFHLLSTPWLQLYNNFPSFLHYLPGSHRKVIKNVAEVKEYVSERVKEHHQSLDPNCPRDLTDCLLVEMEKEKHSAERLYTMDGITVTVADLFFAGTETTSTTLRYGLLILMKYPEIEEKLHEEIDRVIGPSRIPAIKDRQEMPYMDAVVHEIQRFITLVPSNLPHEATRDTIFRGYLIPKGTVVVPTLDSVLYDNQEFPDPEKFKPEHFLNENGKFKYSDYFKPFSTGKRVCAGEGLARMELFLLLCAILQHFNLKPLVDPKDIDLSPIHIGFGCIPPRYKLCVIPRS

| SMILES | IC50 (Cytochrome P450 4Z1 [1]) | IC50 (Cytochrome P450 4Z1 [2]) | inhibition at 1 µM (Cytochrome P450 4Z1 [3]) | inhibition at 0.1 µM (Cytochrome P450 4Z1 [4]) | inhibition at 1 µM (CYP2D6) | inhibition at 1 µM (CYP2C19) | inhibition at 1 µM (CYP1A2) | inhibition at 1 µM (CYP3A4) | inhibition at 1 µM (CYP2C9) | inhibition at 1 µM (CYP2E1) |
| --- | --- | --- | --- | --- | --- | --- | --- | --- | --- | --- |
| c1ccc(Cn2ccnc2)cc1 | 6.7 µM | 5.9 µM | 0% | 9% |  |  |  |  |  |  |
| O=C(O)CCC1CCCN(C(=O)c2ccc(Cn3ccnc3)cc2)C1 (stereo unspecified) |  |  | 12% | 1% |  |  |  |  |  |  |
| CC1CCN(C(=O)c2cccc(OCC(=O)O)c2)CC1n1ccnc1 (stereo unspecified) |  |  | 22% | 13% |  |  |  |  |  |  |
| Cn1cnc2cc(C(=O)Nc3ccc(Oc4nn[nH]n4)cc3)ccc21 |  |  | 10% | 5% |  |  |  |  |  |  |
| O=C(O)c1cccc(CNC(=O)c2ccc(-n3ccnc3)cc2)c1 | 0.063 µM |  | 82% | 36% | -5.8% | 1.4% | 2.7% | 12% | -0.2% | 54% |
| O=C(O)/C=C/c1ccc(Cn2ccnc2)cc1 [OZAGREL] |  |  | 24% | 21% |  |  |  |  |  |  |
